# Assay results taken from patent US20250325485A1, “STABLE COMPOSITIONS OF FOXY-5 HEXAPEPTIDE WITH HIGH SOLUBILITY” (WNTRESEARCH AB, priority 2021, published 2025).
# Where a name gives a salt, the structure may show the parent alone. Peptide text beside a SMILES is read from it. * marks the point of attachment. For = O=C*
# Test: Conversion of Foxy-5 to mono-, di- and tri-sodium salts
# Assay type: physicochemical
# Conditions: aqueous slurry of Foxy-5 25 g/L
# Procedure: As Foxy-5 contains three carboxylic groups (Asp^2, Glu^5, and the C-terminal carboxylic acids), the mono, di, and tri-sodium salts were generated by treating aqueous slurries of Foxy-5 (25 g/L) with 1 eq., 2 eq. and 3 eq. of sodium hydroxide. As starting material, a batch of Foxy-5 free acid containing very low amounts of two known impurities, the aspartimide (<0.1%) and the dimer, (<0.1%) was used (structures, see FIG. 2).
# The di-sodium salt could be completely dissolved within 10 minutes after addition of NaOH (2 eq., pH=4.57). […] After lyophilization, 0.07% dimer and 0.79% aspartimide were detected.
# The tri-sodium salt dissolved within 5 minutes after addition of NaOH (3 eq., pH=6.76) with minimal increase of the aspartimide impurity, but increased formation of the dimer was observed. After lyophilization, 0.41% dimer and 0.17% of the aspartimide were detected.
row,Structure (SMILES),time to complete dissolution after addition of NaOH
1,CSCC[C@H](NC=O)C(=O)N[C@@H](CC(=O)O)C(=O)NCC(=O)N[C@@H](CS)C(=O)N[C@@H](CCC(=O)O)C(=O)N[C@@H](CC(C)C)C(=O)O [di-sodium salt] (For-MDGCEL-OH),≤ 10 min

# Same assay, conditions: aqueous slurry of Foxy-5 25 g/L; 1 eq. NaOH, pH=3.84
row,Structure (SMILES),dissolution after NaOH addition
1,CSCC[C@H](NC=O)C(=O)N[C@@H](CC(=O)O)C(=O)NCC(=O)N[C@@H](CS)C(=O)N[C@@H](CCC(=O)O)C(=O)N[C@@H](CC(C)C)C(=O)O [mono-sodium salt] (For-MDGCEL-OH),could not be completely dissolved

# Same assay, conditions: starting material aspartimide <0.1%; HPLC
row,Structure (SMILES),aspartimide detected after lyophilization
1,CSCC[C@H](NC=O)C(=O)N[C@@H](CC(=O)O)C(=O)NCC(=O)N[C@@H](CS)C(=O)N[C@@H](CCC(=O)O)C(=O)N[C@@H](CC(C)C)C(=O)O [di-sodium salt] (For-MDGCEL-OH),0.79%

# Same assay, conditions: starting material dimer <0.1%; HPLC
row,Structure (SMILES),dimer detected after lyophilization
1,CSCC[C@H](NC=O)C(=O)N[C@@H](CC(=O)O)C(=O)NCC(=O)N[C@@H](CS)C(=O)N[C@@H](CCC(=O)O)C(=O)N[C@@H](CC(C)C)C(=O)O [di-sodium salt] (For-MDGCEL-OH),0.07%

# Test: FIG. 10
# Conditions: not given
# Procedure: Table printed on a drawing sheet, FIG. 10
# The patent's description of the figure: FIG. 10
# First reader's note: Storage stability of Foxy-5 free acid and its salts shown as HPLC purity and impurity levels (Ala, aspartimide, dimer) initially and after 2 and 4 weeks at 40°C; decimal commas as printed.
Structure (SMILES),After 2 weeks @ 40°C | Ala (area%),After 2 weeks @ 40°C | Aspartimide (area%),After 2 weeks @ 40°C | Dimer (area%),After 2 weeks @ 40°C | HPLC purity (area%),After 4 weeks @ 40°C | Ala (area%),After 4 weeks @ 40°C | Aspartimide (area%),After 4 weeks @ 40°C | Dimer (area%),After 4 weeks @ 40°C | HPLC purity (area%)
CSCC[C@H](NC=O)C(=O)N[C@@H](CC(=O)O)C(=O)NCC(=O)N[C@@H](CS)C(=O)N[C@@H](CCC(=O)O)C(=O)N[C@@H](CC(C)C)C(=O)O [HIS Di salt] (For-MDGCEL-OH),0 area%,"1,97 area%","0,00 area%","97,40 area%","0,00 area%","2,40 area%","0,00 area%","96,52 area%"
CSCC[C@H](NC=O)C(=O)N[C@@H](CC(=O)O)C(=O)NCC(=O)N[C@@H](CS)C(=O)N[C@@H](CCC(=O)O)C(=O)N[C@@H](CC(C)C)C(=O)O [NH3 Tri salt] (For-MDGCEL-OH),0 area%,"4,10 area%","2,95 area%","88,64 area%","0,00 area%","3,88 area%","3,37 area%","86,45 area%"
CSCC[C@H](NC=O)C(=O)N[C@@H](CC(=O)O)C(=O)NCC(=O)N[C@@H](CS)C(=O)N[C@@H](CCC(=O)O)C(=O)N[C@@H](CC(C)C)C(=O)O [NMG Tri salt] (For-MDGCEL-OH),0 area%,"1,76 area%","1,13 area%","95,97 area%","0,00 area%","3,06 area%","0,82 area%","95,14 area%"
CSCC[C@H](NC=O)C(=O)N[C@@H](CC(=O)O)C(=O)NCC(=O)N[C@@H](CS)C(=O)N[C@@H](CCC(=O)O)C(=O)N[C@@H](CC(C)C)C(=O)O [NH3 Di salt] (For-MDGCEL-OH),0 area%,"4,45 area%","0,38 area%","92,27 area%","0,00 area%","5,52 area%","0,27 area%","89,75 area%"
CSCC[C@H](NC=O)C(=O)N[C@@H](CC(=O)O)C(=O)NCC(=O)N[C@@H](CS)C(=O)N[C@@H](CCC(=O)O)C(=O)N[C@@H](CC(C)C)C(=O)O [Na Tri salt] (For-MDGCEL-OH),"13,4 area%","0,53 area%","13,20 area%","68,15 area%","14,70 area%","0,30 area%","16,80 area%","60,34 area%"
CSCC[C@H](NC=O)C(=O)N[C@@H](CC(=O)O)C(=O)NCC(=O)N[C@@H](CS)C(=O)N[C@@H](CCC(=O)O)C(=O)N[C@@H](CC(C)C)C(=O)O [LYS Di salt] (For-MDGCEL-OH),0 area%,"2,50 area%","0,00 area%","97,06 area%","0,47 area%","2,80 area%","0,55 area%","95,17 area%"
CSCC[C@H](NC=O)C(=O)N[C@@H](CC(=O)O)C(=O)NCC(=O)N[C@@H](CS)C(=O)N[C@@H](CCC(=O)O)C(=O)N[C@@H](CC(C)C)C(=O)O [HIS Tri salt] (For-MDGCEL-OH),0 area%,"1,97 area%","1,10 area%","96,41 area%","0,00 area%","2,43 area%","0,90 area%","95,32 area%"
CSCC[C@H](NC=O)C(=O)N[C@@H](CC(=O)O)C(=O)NCC(=O)N[C@@H](CS)C(=O)N[C@@H](CCC(=O)O)C(=O)N[C@@H](CC(C)C)C(=O)O [DEA Tri salt] (For-MDGCEL-OH),"1,91 area%","5,78 area%","8,10 area%","82,51 area%","1,82 area%","7,20 area%","5,80 area%","80,92 area%"
CSCC[C@H](NC=O)C(=O)N[C@@H](CC(=O)O)C(=O)NCC(=O)N[C@@H](CS)C(=O)N[C@@H](CCC(=O)O)C(=O)N[C@@H](CC(C)C)C(=O)O [NMG Di salt] (For-MDGCEL-OH),0 area%,"3,85 area%","0,93 area%","93,22 area%","0,00 area%","6,17 area%","0,81 area%","91,23 area%"
CSCC[C@H](NC=O)C(=O)N[C@@H](CC(=O)O)C(=O)NCC(=O)N[C@@H](CS)C(=O)N[C@@H](CCC(=O)O)C(=O)N[C@@H](CC(C)C)C(=O)O [TRO Di salt] (For-MDGCEL-OH),0 area%,"2,75 area%","0,00 area%","96,51 area%","0,00 area%","4,20 area%","0,60 area%","93,87 area%"
CSCC[C@H](NC=O)C(=O)N[C@@H](CC(=O)O)C(=O)NCC(=O)N[C@@H](CS)C(=O)N[C@@H](CCC(=O)O)C(=O)N[C@@H](CC(C)C)C(=O)O [TRO Tri salt] (For-MDGCEL-OH),0 area%,"8,24 area%","0,63 area%","87,27 area%","0,00 area%","11,40 area%","1,28 area%","78,60 area%"
CSCC[C@H](NC=O)C(=O)N[C@@H](CC(=O)O)C(=O)NCC(=O)N[C@@H](CS)C(=O)N[C@@H](CCC(=O)O)C(=O)N[C@@H](CC(C)C)C(=O)O [DEA Di salt] (For-MDGCEL-OH),0 area%,"4,98 area%","1,18 area%","92,88 area%","0,25 area%","7,50 area%","3,10 area%","87,11 area%"
CSCC[C@H](NC=O)C(=O)N[C@@H](CC(=O)O)C(=O)NCC(=O)N[C@@H](CS)C(=O)N[C@@H](CCC(=O)O)C(=O)N[C@@H](CC(C)C)C(=O)O [LYS Tri salt] (For-MDGCEL-OH),"4,25 area%","1,10 area%","1,80 area%","92,29 area%","8,45 area%","1,26 area%","3,40 area%","84,97 area%"
CSCC[C@H](NC=O)C(=O)N[C@@H](CC(=O)O)C(=O)NCC(=O)N[C@@H](CS)C(=O)N[C@@H](CCC(=O)O)C(=O)N[C@@H](CC(C)C)C(=O)O [Foxy-5 free acid] (For-MDGCEL-OH),0 area%,"0,75 area%","0,00 area%","98,40 area%","0,00 area%","0,80 area%","0,00 area%","98,21 area%"
